This passage reports IC50 results from publication PMC10138577, “Prenylated Flavonoids with Selective Toxicity against Human Cancers” (International Journal of Molecular Sciences, 2023).

Type in all cases: cell-based
The test system of experiment [1] is SK-BR-3 human breast adenocarcinoma cells. The experiment can be described thus: In vitro antiproliferative assay (SRB), SK-BR-3. The note with it: SK-BR-3, 72 h exposure, SRB, mean ± SD. From the text:
(§1) The following established in vitro cell lines were applied: human breast adenocarcinoma (MCF-7 and SK-BR-3), human breast ductal carcinoma (T47D), human prostate adenocarcinoma (PC-3), human prostate carcinoma (Du145), human colorectal adenocarcinoma (HT-29 and LoVo), doxorubicin-resistant human colorectal adenocarcinoma (LoVo/Dx), human myelomonocytic leukemia (MV-4-11), human lung adenocarcinoma (A549), normal murine embryonic fibroblasts (BALB/3T3) and human lung microvascular endothelial (HLMEC). All the cell lines were obtained from the American Type Culture Collection (Rockville, MD, USA) except for LoVo and LoVo/DX, which were received from the Technical University of Gdańsk, Poland, courtesy of Prof. E. Borowski. All the cell lines were maintained in the Institute of Immunology and Experimental Therapy, Wroclaw, Poland. The cells were cultured in the following media: DMEM medium (BALB/3T3), Eagle medium (MCF-7, SK-BR-3, Du145), RPMI medium (HLMEC, MV-4-11) or RPMI 1640 + Opti-MEM (1:1) medium (A549, T47D, LoVo, LoVo/Dx, PC-3, HT-29). The DMEM medium was supplemented with 2 mM L-glutamine and 10% fetal bovine serum. The Eagle medium was supplemented with 4 mM L-glutamine, 10% fetal bovine serum, 1 mM sodium pyruvate for Du145 cells or 2 mM L-glutamine, 1% amino acids and 0.8 mg L^−1 of insulin for MCF-7 and SK-BR-3. The RPMI medium was supplemented with 2 mM L-glutamine, 1 mM sodium pyruvate and 10% fetal bovine serum. The RPMI 1640 + Opti-MEM (1:1) medium was supplemented with 2 mM L-glutamine, 5% fetal bovine serum (PC-3, A549) and 0.8 mg L^−1 insulin (T47D) or 1 mM sodium pyruvate (HT-29, LoVo, LoVoDx) and 0.1 ug/mL doxorubicin (LoVo/Dx). The media contained antibiotics: 100 µg mL^−1 streptomycin and 100 U mL^−1 penicillin. All the cell lines were incubated at 37 °C in a humid atmosphere saturated with 5% CO2.
(§2) The details of this technique were described by Skehan et al.. After 72 h of incubation with the tested compounds, the cells were fixed in situ by gently adding cold 50% trichloroacetic acid—TCA (50 µL per well). The plates were incubated at 4 °C for 1 h and then washed five times with tap water and air-dried. Next, the cellular material fixed with TCA was stained by adding 50 µL of 0.4% sulforhodamine B dissolved in 1% acetic acid to each well and incubating the wells for 30 min at room temperature. The unbound dye was removed by washing the plates five times with 1% acetic acid, whereas the stain bound to the cells was extracted with 150 µL of 10 mM unbuffered Tris base for determination of the optical density at a 540 nm wavelength in a computer-interfaced, 96-well microtiter plate reader–Multiskan FC photometer (Thermo Scientific, Waltham, MA, USA). The background optical density was measured in the wells filled with culture medium, without the cells.
(§3) Twenty-four hours before incubation with the tested compounds, the cells were seeded in 96-well plates (Sarstedt, Nümbrecht, Germany) at a density of 10^4 cells per well (10^3 cells per well for HLMEC) in 100 µL of culture medium. The analysis of the antiproliferative activity of the compounds was performed using sulforhothamine B (SRB) (for all the adherent cells) or 3-(4,5-dimethylthiazol-2-yl)-2,5-diphenyl tetrazolium bromide (MTT) (for the leukemia cells—MV-4-11). The details of this technique have been previously described by Skehan et al. and Antoszak et al.. An assay was performed after 72 h of exposure at varying concentrations (from 0.1 to 100 µg mL^−1) of xanthohumol (1), aurone (2) and the reference drug cisplatin. Each compound at each concentration was tested in a single experiment, which was repeated at least 3 times. […] The results were calculated as the IC50 (μM) (half maximal inhibitory concentration), i.e., the concentration of the tested agent that inhibits the proliferation of the cancer cell population by half. […]

Experiment [2] has as its system HT-29 human colorectal adenocarcinoma cells. The experiment can be described thus: In vitro antiproliferative assay (SRB), HT-29. The note with it: HT-29, 72 h exposure, SRB, mean ± SD.
Description: as §1, §2, §3

In experiment [3] the test system is LoVo human colorectal adenocarcinoma cells. The experiment can be described thus: In vitro antiproliferative assay (SRB), LoVo. To be noted: LoVo, 72 h exposure, SRB, mean ± SD.
Description: as §1, §2, §3

Experiment [4] concerns normal murine embryonic fibroblasts (BALB/3T3). The experiment in a line: In vitro cytotoxicity against normal cells (SRB), BALB/3T3. To be noted: BALB3T3 normal cell line, 72 h exposure, SRB, mean ± SD; read-out: Antiproliferative activity IC50.
Description: as §1
(§4) The details of this technique were described by Skehan et al.. […] The unbound dye was removed by washing the plates five times with 1% acetic acid, whereas the stain bound to the cells was extracted with 150 µL of 10 mM unbuffered Tris base for determination of the optical density at a 540 nm wavelength in a computer-interfaced, 96-well microtiter plate reader–Multiskan FC photometer (Thermo Scientific, Waltham, MA, USA). The background optical density was measured in the wells filled with culture medium, without the cells.
(§5) Twenty-four hours before incubation with the tested compounds, the cells were seeded in 96-well plates (Sarstedt, Nümbrecht, Germany) at a density of 10^4 cells per well (10^3 cells per well for HLMEC) in 100 µL of culture medium. […] The results were calculated as the IC50 (μM) (half maximal inhibitory concentration), i.e., the concentration of the tested agent that inhibits the proliferation of the cancer cell population by half. […]

Experiment [5] deals with human lung microvascular endothelial (HLMEC) cells. The experiment in a line: In vitro cytotoxicity against normal cells (SRB), HLMEC. To be noted: HLMEC normal cell line, 72 h exposure, SRB, mean ± SD; read-out: Antiproliferative activity IC50.
Description: as §1, §4, §5

Experiment [6] concerns MV-4-11 human myelomonocytic leukemia cells. The experiment in a line: In vitro antiproliferative assay (MTT), MV-4-11. To be noted: MV-4-11, 72 h exposure, MTT, mean ± SD.
Description: as §1
The details of this technique were described by Antoszczak et al.. The proliferation inhibition of human myelomonocytic leukemia (MV-4-11) by the tested compounds was measured using the MTT assay. Thus, 20 µL of 3-(4,5-dimethylthiazol-2-yl)-2,5-diphenyl tetrazolium bromide solution was added to each well. Then, the plates were incubated for 4 h in a cell incubator to allow the cells to metabolize the yellow MTT to blue formazan. Next, 80 µL of lysing mixture (consisting of 67.5 g sodium dodecyl sulfate, 225 mL dimethylformamide and 275 mL distilled water) was added to each well. The plates were incubated for 24 h for the formazan crystals to be released from the cells and dissolved, and then the absorbance of each well was read on a 96-well microtiter plate reader (Multiskan FC photometer (Thermo Scientific)) at a 570 nm wavelength.
Twenty-four hours before incubation with the tested compounds, the cells were seeded in 96-well plates (Sarstedt, Nümbrecht, Germany) at a density of 10^4 cells per well (10^3 cells per well for HLMEC) in 100 µL of culture medium. The analysis of the antiproliferative activity of the compounds was performed using sulforhothamine B (SRB) (for all the adherent cells) or 3-(4,5-dimethylthiazol-2-yl)-2,5-diphenyl tetrazolium bromide (MTT) (for the leukemia cells—MV-4-11). The details of this technique have been previously described by Skehan et al. and Antoszak et al.. An assay was performed after 72 h of exposure at varying concentrations (from 0.1 to 100 µg mL^−1) of xanthohumol (1), aurone (2) and the reference drug cisplatin. Each compound at each concentration was tested in a single experiment, which was repeated at least 3 times. […] The results were calculated as the IC50 (μM) (half maximal inhibitory concentration), i.e., the concentration of the tested agent that inhibits the proliferation of the cancer cell population by half. The IC50 values and the mean values ± SD calculated for each experiment separately using GraphPad Prism software (GraphPad Software 9.1.0, San Diego, CA, USA) are presented in Table S1 in the Supplementary Materials.

Experiment [7] deals with LoVo/Dx doxorubicin-resistant human colorectal adenocarcinoma cells. The experiment in a line: In vitro antiproliferative assay (SRB), LoVo/Dx. To be noted: LoVo/Dx, 72 h exposure, SRB, mean ± SD.
Description: as §1, §2, §3

The subject of experiment [8] is Du145 human prostate carcinoma cells. The experiment can be described thus: In vitro antiproliferative assay (SRB), Du145. The note with it: Du145, 72 h exposure, SRB, mean ± SD.
Description: as §1, §2, §3

For experiment [9], the system named is MCF-7 human breast adenocarcinoma cells. The experiment can be described thus: In vitro antiproliferative assay (SRB), MCF-7. To be noted: MCF-7, 72 h exposure, SRB, mean ± SD.
Description: as §1, §2, §3

For experiment [10], the system named is PC-3 human prostate adenocarcinoma cells. The experiment can be described thus: In vitro antiproliferative assay (SRB), PC-3. To be noted: PC-3, 72 h exposure, SRB, mean ± SD.
Description: as §1, §2, §3

The test system of experiment [11] is A549 human lung adenocarcinoma cells. The experiment in a line: In vitro antiproliferative assay (SRB), A549. The note with it: A549, 72 h exposure, SRB, mean ± SD.
Description: as §1, §2, §3

In experiment [12] the test system is T47D human breast ductal carcinoma cells. The experiment can be described thus: In vitro antiproliferative assay (SRB), T47D. To be noted: T47D, 72 h exposure, SRB, mean ± SD.
Description: as §1, §2, §3

`N.N.[Cl][Pt][Cl]` [Cisplatin, cisplatin, reference compound]: the IC50 turned out to be 21.6 ± 3.93 µM in experiment [1]; 18.9 ± 2.25 µM in experiment [2]; 4.32 ± 0.9 µM in experiment [3]; 8.96 ± 2.15 µM in [4]; 1.26 ± 0.1 µM in [5]; 1.11 ± 0.36 µM in experiment [6]. In addition, the IC50 in experiment [7] worked out at 8.97 ± 1.45 µM; in experiment [8], 9.36 ± 0.63 µM; in experiment [9] it was 11.3 ± 0.99 µM; in experiment [10] it was 15.3 ± 2.28 µM; in experiment [11], 11.3 ± 1.36 µM; in [12], 13.1 ± 5.58 µM.
